System: Escherichia Coli (strain O157)
Assay: Sepsis model induced in mice by Escherichia Coli (strain O157)
Type: in vivo
Conditions: BALB/c mice, E. coli O157 2.5×10^8 cells i.p.; single intravenous injection 25 mg/kg (antibiotic base) 4 h post infection; n=10
Experimental: Antibacterial efficacy of antibiotics in hybrid polymer-lipid nanoparticles was evaluated “in vivo” in a sepsis model, induced in mice (BALB/C line) by Escherichia Coli (strain O157). E. Coli O157 strain was chosen as a model infection as one of the most common pathogens that cause nosocomial infections.
Female BALB/c mice 6-8 weeks old were infected intraperitoneally with E. coli (strain O157) at a dose of 2.5×10^8 cells off E. coli per mouse.
The infected animals were randomized in groups (n=10) and received one of the following formulations: […]
Streptomycin formulations: 1) Saline; 2) Streptomycin solution in saline, 5 mg/ml 3) Streptomycin in hybrid polymer-lipid nanoparticles (Example 30 in Table 1), 5 mg/ml.
Gentamycin formulations: 1) Saline 2) Gentamycin solution in saline, 2.5 mg/ml; 3) Gentamycin in hybrid polymer-lipid nanoparticles (Example 24 in Table 1), 2.5 mg/ml.
The formulations were injected intraperitoneally (Streptomycin) or intravenously (Gentamycin) in the doses of 1×25 mg/kg (calculated by antibiotic base) 4 h post infection.

In the case of “Gentamycin [Gentamycin solution in saline]”, the “survival of the animals at Day 10” value is reported as 20%.

From US20080102127A1, “HYBRID LIPID-POLYMER NANOPARTICULATE DELIVERY COMPOSITION” (priority 2006, published 2008)
